Converted amounts (≈) assume the structure as drawn. Where two headings read alike, the source gives them in different places. Starred links: 1 amine or outer side, 2 acyl side, 3 side chain; linkers in the order of their positions; H or OH if unused. Positions of bridges follow the written chain, without caps; N, C: chain ends. Non-standard residues stand in square brackets, D forms with d. Residues, ends and D or L forms follow the SMILES beside them. *: point of attachment. Decanoyl(3R-OH) = CCCCCCC[C@@H](O)CC(=O)*; NH(2-ClPh) = Clc1ccccc1N*; dDab = NCC[C@@H](N)C(=O)O; Octanoyl = CCCCCCCC(=O)*; dDap = NC[C@@H](N)C(=O)O; Dab = NCC[C@H](N)C(=O)O; CO = O=C([*:1])[*:2]

This note sets out measurements from patent publication US11279733B2, “Peptide antibiotics” (priority 2017, dated 2022).

The subject of one data set is A. baumannii ATCC 19606. The method, boiled down: (§1)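 Mid-log cultures grown in Mueller Hinton broth at 37° C were tested by 2-fold broth microdilution at 5×10^5 CFU/mL final. Compounds were dissolved in water and tested over a final range of 32 to 0.015 μg/mL.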
The subject of another data set is A. baumannii GN_093 PmxR. A digest of the protocol:
as §1

For another data set, the system named is E. coli ATCC 25922. A digest of the protocol:
as §1

The test system of another data set is K. pneumoniae ATCC 13883. A digest of the protocol:
as §1

For data set [1], the system named is K. pneumoniae ATCC 700603, MDR. A digest of the protocol: as §1
Data set [2] has as its system K. pneumoniae ATCC BAA-2146, NDM-1 pos. The method, boiled down: as §1
The test system of data set [3] is K. pneumoniae GN_102 PmxR. A digest of the protocol: as §1
The subject of data set [4] is K. pneumoniae GN_106, PmxR. The method, boiled down:
as §1

For another data set, the system named is P. aeruginosa ATCC 27853. The method, boiled down: as §1
For data set [5], the system named is P. aeruginosa GN_043, PmxR. The method, boiled down: as §1
Data set [6] concerns P. aeruginosa GN_105, PmxR. The method, boiled down:
as §1

The subject of data set [7] is S. aureus ATCC 25923, MSSA. A digest of the protocol: as §1
Another data set is described as follows: in vitro. The settings on record: human. A digest of the protocol: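 Fluorescence read-out (excitation 560, emission 590) after a 2 h, 37 °C incubation with 5 μM resazurin, following 24 h compound treatment of cells plated at 4000 per well. CC50 values come from fitting dose–response curves of growth inhibition.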

For `CCCCCCC[C@@H](O)CC(=O)N[C@H](CCN)C(=O)N[C@H]1CCNC(=O)[C@H](Cc2c[nH]cn2)NC(=O)[C@H](CCN)NC(=O)[C@H](CCN)NC(=O)[C@H](CC(C)C)NC(=O)[C@@H](Cc2ccccc2)NC(=O)[C@H](CCN)NC1=O` [compound 8911, 3(R)OH-nC9CO-D-Dab-cyc[L-Dab-L-Dab-D-Phe-L-Leu-L-Dab-L-Dab-L-His]] ({Decanoyl(3R-OH)}-[dDab][Dab][Dab][dF]L[Dab][Dab]H; lactam 2-C), the “MIC A. baumannii ATCC 19606” value in the data set with A. baumannii ATCC 19606 (ATCC 19606) was >32 µg/mL. Besides, the “MIC A. baumannii GN_093 PmxR” value in the data set with A. baumannii GN_093 PmxR (GN 093 PmxR) was >32 µg/mL. In addition, the “MIC E. coli ATCC 25922” value against E. coli ATCC 25922 (ATCC 25922) stood at 8 µg/mL (≈ 7.49 µM). Besides, the “MIC K. pneumoniae ATCC 13883” value in the data set on K. pneumoniae ATCC 13883 (ATCC 13883) was >32 µg/mL. For the same compound, the “MIC K. pneumoniae ATCC 700603, MDR” value in data set [1] (ATCC 700603) was 8 µg/mL (≈ 7.49 µM). Further, the “MIC K. pneumoniae ATCC BAA-2146, NDM-1 pos” value in data set [2] (ATCC BAA-2146) worked out at 16 µg/mL (≈ 15 µM). Also, the “MIC K. pneumoniae GN_102 PmxR” value in [3] (GN 102 PmxR) was >32 µg/mL. In addition, the “MIC K. pneumoniae GN_106, PmxR” value in data set [4] (GN 106, PmxR) was 32 µg/mL (≈ 30 µM). In addition, in the data set on P. aeruginosa ATCC 27853 (ATCC 27853), the “MIC P. aeruginosa ATCC 27853” value worked out at 2 µg/mL (≈ 1.87 µM). In data set [5] (polymyxin-resistant), the “MIC P. aeruginosa GN_043, PmxR” value was found to be 2 µg/mL (≈ 1.87 µM). Further, the “MIC P. aeruginosa GN_105, PmxR” value in [6] (GN 105, PmxR) was found to be 16 µg/mL (≈ 15 µM). The “MIC S. aureus ATCC 25923, MSSA” value in data set [7] (ATCC 25923) was >32 µg/mL. The CC50 at 24 h in “in vitro” is > 300 µM.

Take `CCCCCCCC(=O)N[C@H](CN)C(=O)N[C@H]1CCNC(=O)[C@H](CC(C)C)NC(=O)[C@H](CCN)NC(=O)[C@H](CCN)NC(=O)[C@H](CC(C)C)NC(=O)[C@@H](Cc2ccccc2)NC(=O)[C@H](CCN)NC1=O` [compound 8976, nC7CO-D-Dap-cyc[L-Dab-L-Dab-D-Phe-L-Leu-L-Dab-L-Dab-L-Leu]] (Octanoyl-[dDap][Dab][Dab][dF]L[Dab][Dab]L; lactam 2-C): in the data set on A. baumannii ATCC 19606 (ATCC 19606), the “MIC, A. baumannii ATCC 19606” value is >32 µg/mL. The “MIC A. baumannii GN_093 PmxR” value against A. baumannii GN_093 PmxR (GN 093 PmxR) came to 8 µg/mL (≈ 8.11 µM). In addition, in the data set on E. coli ATCC 25922 (ATCC 25922), the “MIC, E. coli ATCC 25922” value is 4 µg/mL (≈ 4.06 µM). Also, the “MIC, K. pneumoniae ATCC 13883” value with K. pneumoniae ATCC 13883 (ATCC 13883) came out at 8 µg/mL (≈ 8.11 µM). Also, the “MIC, K. pneumoniae ATCC 700603, MDR” value in [1] (ATCC 700603) stood at 8 µg/mL (≈ 8.11 µM). Besides, the “MIC, K. pneumoniae ATCC BAA-2146, NDM-1 pos” value in data set [2] (ATCC BAA-2146) stood at 8 µg/mL (≈ 8.11 µM). Moreover, the “MIC K. pneumoniae GN_102 PmxR” value in data set [3] (GN 102 PmxR) came to 16 µg/mL (≈ 16.2 µM). In data set [4] (GN 106, PmxR), the “MIC K. pneumoniae GN_106, PmxR” value amounted to 16 µg/mL (≈ 16.2 µM). For the same compound, the “MIC, P. aeruginosa ATCC 27853” value in the data set on P. aeruginosa ATCC 27853 (ATCC 27853) came to 2 µg/mL (≈ 2.03 µM). In addition, the “MIC P. aeruginosa GN_043, PmxR” value in data set [5] (Table 6, polymyxin-resistant) was 2 µg/mL (≈ 2.03 µM). In addition, the “MIC P. aeruginosa GN_105, PmxR” value in data set [6] (GN 105, PmxR) was determined as 2 µg/mL (≈ 2.03 µM). For the same compound, the “MIC, S. aureus ATCC 25923, MSSA” value in data set [7] (ATCC 25923) is >32 µg/mL. Besides, the CC50 at 24 h in the data set “in vitro” was > 300 µM.

For `CC(=O)N[C@H](CN)C(=O)N[C@H]1CCNC(=O)[C@H](CC(C)C)NC(=O)[C@H](CCN)NC(=O)[C@H](CCN)NC(=O)[C@H](CC(C)C)NC(=O)[C@@H](Cc2ccccc2)NC(=O)[C@H](CCN)NC1=O` [compound 8980, Ac-D-Dap-cyc[L-Dab-L-Dab-D-Phe-L-Leu-L-Dab-L-Dab-L-Leu]] (Ac-[dDap][Dab][Dab][dF]L[Dab][Dab]L; lactam 2-C), the “MIC, A. baumannii ATCC 19606” value in the data set on A. baumannii ATCC 19606 (ATCC 19606) was >32 µg/mL. Further, the “MIC A. baumannii GN_093 PmxR” value with A. baumannii GN_093 PmxR (GN 093 PmxR) was >32 µg/mL. In addition, in the data set with E. coli ATCC 25922 (ATCC 25922), the “MIC, E. coli ATCC 25922” value was >32 µg/mL. The “MIC, K. pneumoniae ATCC 13883” value against K. pneumoniae ATCC 13883 (ATCC 13883) was >32 µg/mL. In addition, in data set [1] (ATCC 700603), the “MIC, K. pneumoniae ATCC 700603, MDR” value turned out to be 32 µg/mL (≈ 35.5 µM). For the same compound, the “MIC, K. pneumoniae ATCC BAA-2146, NDM-1 pos” value in data set [2] (ATCC BAA-2146) is 32 µg/mL (≈ 35.5 µM). The “MIC K. pneumoniae GN_102 PmxR” value in data set [3] (GN 102 PmxR) was >32 µg/mL. In data set [4] (GN 106, PmxR), the “MIC K. pneumoniae GN_106, PmxR” value was >32 µg/mL. In addition, the “MIC, P. aeruginosa ATCC 27853” value against P. aeruginosa ATCC 27853 (ATCC 27853) is 4 µg/mL (≈ 4.43 µM). Besides, the “MIC P. aeruginosa GN_043, PmxR” value in [5] (Table 6, polymyxin-resistant) is >32 µg/mL. Also, in data set [6] (GN 105, PmxR), the “MIC P. aeruginosa GN_105, PmxR” value is >32 µg/mL. For the same compound, in data set [7] (ATCC 25923), the “MIC, S. aureus ATCC 25923, MSSA” value was >32 µg/mL. Also, the CC50 at 24 h in “in vitro” was > 300 µM.

Consider `CC(C)C[C@@H]1NC(=O)[C@H](CCN)NC(=O)[C@H](CCN)NC(=O)[C@H](CC(C)C)NC(=O)[C@@H](Cc2ccccc2)NC(=O)[C@H](CCN)NC(=O)[C@@H](NC(=O)[C@@H](CN)NC(=O)Nc2ccccc2Cl)CCNC1=O` [compound 9188, 2-ClPh-NHCO-D-Dap-cyc[L-Dab-L-Dab-D-Phe-L-Leu-L-Dab-L-Dab-L-Leu]] ({NH(2-ClPh)-CO}-[dDap][Dab][Dab][dF]L[Dab][Dab]L; lactam 2-C), for which, in the data set with A. baumannii ATCC 19606 (A. baumannii ATCC 19606), the “MIC A. baumannii ATCC 19606” value was >32 µg/mL. Further, the “MIC A. baumannii GN_093 PmxR” value in the data set on A. baumannii GN_093 PmxR (A. baumannii GN_093 PmxR) is >16 µg/mL. Also, the “MIC E. coli ATCC 25922” value against E. coli ATCC 25922 (E. coli ATCC 25922) turned out to be 8 µg/mL (≈ 7.89 µM). In addition, in the data set on K. pneumoniae ATCC 13883 (K. pneumoniae ATCC 13883), the “MIC K. pneumoniae ATCC 13883” value worked out at 16 µg/mL (≈ 15.8 µM). For the same compound, the “MIC K. pneumoniae ATCC 700603, MDR” value in [1] (K. pneumoniae ATCC 700603, MDR) is 8 µg/mL (≈ 7.89 µM). Further, in data set [2] (K. pneumoniae ATCC BAA-2146, NDM-1 pos), the “MIC K. pneumoniae ATCC BAA-2146, NDM-1 pos” value is 8 µg/mL (≈ 7.89 µM). The “MIC K. pneumoniae GN_102 PmxR” value in [3] (K. pneumoniae GN_102 PmxR) was >16 µg/mL. Further, the “MIC K. pneumoniae GN_106, PmxR” value in [4] (K. pneumoniae GN_106, PmxR) was >16 µg/mL. In addition, in the data set with P. aeruginosa ATCC 27853 (P. aeruginosa ATCC 27853), the “MIC P. aeruginosa ATCC 27853” value amounted to 2 µg/mL (≈ 1.97 µM). Also, the “MIC P. aeruginosa GN_043, PmxR” value in data set [5] (P. aeruginosa GN_043, PmxR) is >16 µg/mL. Besides, the “MIC P. aeruginosa GN_105, PmxR” value in data set [6] (P. aeruginosa GN_105, PmxR) is >16 µg/mL. For the same compound, the “MIC S. aureus ATCC 25923, MSSA” value in [7] (S. aureus ATCC 25923, MSSA) is >16 µg/mL. In addition, the CC50 at 24 h in the data set “in vitro” is > 300 µM.
